Laboratory results: patent US6673749B1, “Use of phyllocladane diterpenoids for plant growth promotion and alleviation of growth retardant allelochemicals, and method therefor” (Council of Scientific and Industrial Research, priority 2002, dated 2004)

Columns and labels:
Test in all cases: Seed germination and seedling shoot/root growth test in petridishes
Type in all cases: in vivo
Triticum aestivum = conditions: control = 100%
Method: (§1) As noted above the activity of phyllocladane diterpenoids used in the practice of this invention was observed when these compounds were tested for their effects on seed germination, root and shoot growth of certain plant species and their antagonistic effect on plant growth retardants by the method described by Bagchi G. D. et al Phytochemistry, 45(6)1131-1133, 1997.
(§2) Plant growth promoting activity of calliterpenone, calliterpenone monoacetate, and calliterpenone di-acetate was examined at 0.1, 0.01 and 0.001 μM concentrations. The tests were conducted against seeds of two monocotyledonous (Hordeum vulgare and Triticum aestivum) and two dicotyledonous plants (Vigna radiata and Trigonella foenum-graecum). Control seeds were germinated in distilled water and all the observations were compared with […]. The root and shoot growth of all the plant species were affected by the phyllocladane diterpenoids, although the extent of effect varied considerably in the plant species with the chemicals and their concentrations. […] Details of the procedure adopted and results obtained are discussed in the various examples.
(§3) 100 ml stalk solutions of 0.1 μM concentration were prepared by dissolving required amounts of various test compounds (depending upon their molecular weights) in minimum amount of ethanol or acetone and adding distilled water. From this stalk solution, 0.01 μM and 0.001 μM concentrations were prepared. Calliterpenone and calliterpenone di acetate was dissolved in 2.0 ml absolute ethanol (Merc), while; calliterpenone monoacetate, isopropylideno calliterpenone and trihydroxy calliterpenone were dissolved in 2.0 ml spectral grade acetone (Ranbaxy). The respective control test solutions of distilled water of each concentration also contained equal amount of absolute ethanol or acetone. For an assay, 10 seeds were placed on Whatman filter paper (moistened with 5.0 ml of test solution in a 9.0 cm diameter petridish (in triplicate). The pteridishes were incubated for 9 days in a germinator, maintained at 25.0±1.0° C. with 90% humidity and 4 hr light/day. At the end of incubation, observations were recorded on the seedlings in terms of germination, shoot and root growth. The data on the length of shoot and root of seedlings and number of seeds germinated in different concentrations of compounds were compared with the control, which was taken as 100%. The data thus obtained were presented in Table-1.
(§4) Root growth of seedlings was measured in the similar way as shoot growth from the experiment as described in Example 1.
(§5) Effect of test compounds on germination was observed from the same experiment as described in Example 1.

Vigna radiata = conditions: Vigna radiata, control = 100%
Method: as §1, §2, §3, §4, §5

[1] = tested on: Trigonella foenum-graecum; conditions: for Percent (%) germination of seeds in relation to control on 9th day after sowing / Percent (%) root growth of seedlings in relation to control on 9th day after sowing / Percent (%) shoot growth of seedlings in relation to control on 9th day after sowing: Trigonella foenum graecum, control = 100%
Method: as §1, §2, §3, §4, §5

Hordeum vulgare = conditions: control = 100%
Method: as §1, §2, §3, §4, §5

| SMILES | Percent (%) germination of seeds in relation to control on 9th day after sowing (Triticum aestivum; 0.001 μM) [%] | Percent (%) root growth of seedlings in relation to control on 9th day after sowing (Triticum aestivum; 0.001 μM) [%] | Percent (%) shoot growth of seedlings in relation to control on 9th day after sowing (Triticum aestivum; 0.001 μM) [%] | Percent (%) germination of seeds in relation to control on 9th day after sowing (Triticum aestivum; 0.01 μM) [%] | Percent (%) root growth of seedlings in relation to control on 9th day after sowing (Triticum aestivum; 0.01 μM) [%] | Percent (%) shoot growth of seedlings in relation to control on 9th day after sowing (Triticum aestivum; 0.01 μM) [%] | Percent (%) germination of seeds in relation to control on 9th day after sowing (Triticum aestivum; 0.1 μM) [%] | Percent (%) root growth of seedlings in relation to control on 9th day after sowing (Triticum aestivum; 0.1 μM) [%] | Percent (%) shoot growth of seedlings in relation to control on 9th day after sowing (Triticum aestivum; 0.1 μM) [%] | Percent (%) germination of seeds in relation to control on 9th day after sowing (Vigna radiata; 0.001 μM) [%] | Percent (%) root growth of seedlings in relation to control on 9th day after sowing (Vigna radiata; 0.001 μM) [%] | Percent (%) shoot growth of seedlings in relation to control on 9th day after sowing (Vigna radiata; 0.001 μM) [%] | Percent (%) germination of seeds in relation to control on 9th day after sowing (Vigna radiata; 0.01 μM) [%] | Percent (%) root growth of seedlings in relation to control on 9th day after sowing (Vigna radiata; 0.01 μM) [%] | Percent (%) shoot growth of seedlings in relation to control on 9th day after sowing (Vigna radiata; 0.01 μM) [%] | Percent (%) germination of seeds in relation to control on 9th day after sowing (Vigna radiata; 0.1 μM) [%] | Percent (%) root growth of seedlings in relation to control on 9th day after sowing (Vigna radiata; 0.1 μM) [%] | Percent (%) shoot growth of seedlings in relation to control on 9th day after sowing (Vigna radiata; 0.1 μM) [%] | Percent (%) germination of seeds in relation to control on 9th day after sowing ([1]; 0.001 μM) [%] | Percent (%) root growth of seedlings in relation to control on 9th day after sowing ([1]; 0.001 μM) [%] | also measured |
| --- | --- | --- | --- | --- | --- | --- | --- | --- | --- | --- | --- | --- | --- | --- | --- | --- | --- | --- | --- | --- | --- |
| CC1(C)OCC2(CC34CCC5C(C)(C)C(=O)CCC5(C)C3CCC2C4)O1 (stereo not drawn) [Isopropylideno Calliterpenone, 16α, 17-isopropylidino 3-oxo phyllocladane] | 100 | 109 | 103 | 100 | 107 | 103 | 100 | 78 | 102 | 150 | 91 | 89 | 100 | 131 | 153 | 100 | 124 | 145 | 100 | 132 | Percent (%) shoot growth of seedlings in relation to control on 9th day after sowing ([1]; 0.001 μM): 137%; Percent (%) germination of seeds in relation to control on 9th day after sowing ([1]; 0.01 μM): 113%; Percent (%) root growth of seedlings in relation to control on 9th day after sowing ([1]; 0.01 μM): 123%; Percent (%) shoot growth of seedlings in relation to control on 9th day after sowing ([1]; 0.01 μM): 123%; Percent (%) root growth of seedlings in relation to control on 9th day after sowing ([1]; 0.01 μM, listed as Iso-propylideno calliterpenone): 132%; Percent (%) germination of seeds in relation to control on 9th day after sowing ([1]; 0.1 μM): 100%; Percent (%) root growth of seedlings in relation to control on 9th day after sowing ([1]; 0.1 μM): 91%; Percent (%) shoot growth of seedlings in relation to control on 9th day after sowing ([1]; 0.1 μM): 100%; Percent (%) germination of seeds in relation to control on 9th day after sowing (Hordeum vulgare; 0.001 μM): 100%; Percent (%) root growth of seedlings in relation to control on 9th day after sowing (Hordeum vulgare; 0.001 μM): 118%; Percent (%) shoot growth of seedlings in relation to control on 9th day after sowing (Hordeum vulgare; 0.001 μM): 106%; Percent (%) germination of seeds in relation to control on 9th day after sowing (Hordeum vulgare; 0.01 μM): 100%; Percent (%) root growth of seedlings in relation to control on 9th day after sowing (Hordeum vulgare; 0.01 μM): 115%; Percent (%) shoot growth of seedlings in relation to control on 9th day after sowing (Hordeum vulgare; 0.01 μM): 107%; Percent (%) germination of seeds in relation to control on 9th day after sowing (Hordeum vulgare; 0.1 μM): 100%; Percent (%) root growth of seedlings in relation to control on 9th day after sowing (Hordeum vulgare; 0.1 μM): 143%; Percent (%) shoot growth of seedlings in relation to control on 9th day after sowing (Hordeum vulgare; 0.1 μM): 108% |
| CC(=O)OCC1(OC(C)=O)CC23CCC4C(C)(C)C(=O)CCC4(C)C2CCC1C3 (stereo not shown) [Calliterpenone Diacetate, calliterpenone diacetate] | 100 | 125 | 109 | 100 | 114 | 106 | 90 | 103 | 103 | 200 | 91 | 111 | 100 | 136 | 115 | 100 | 93 | 119 | 100 | 73 | Percent (%) shoot growth of seedlings in relation to control on 9th day after sowing ([1]; 0.001 μM): 81%; Percent (%) root growth of seedlings in relation to control on 9th day after sowing ([1]; 0.001 μM, listed as Calliterpenone diacetate): 113%; Percent (%) germination of seeds in relation to control on 9th day after sowing ([1]; 0.01 μM): 100%; Percent (%) root growth of seedlings in relation to control on 9th day after sowing ([1]; 0.01 μM): 113%; Percent (%) shoot growth of seedlings in relation to control on 9th day after sowing ([1]; 0.01 μM): 121%; Percent (%) germination of seeds in relation to control on 9th day after sowing ([1]; 0.1 μM): 75%; Percent (%) root growth of seedlings in relation to control on 9th day after sowing ([1]; 0.1 μM): 95%; Percent (%) shoot growth of seedlings in relation to control on 9th day after sowing ([1]; 0.1 μM): 94%; Percent (%) germination of seeds in relation to control on 9th day after sowing (Hordeum vulgare; 0.001 μM): 100%; Percent (%) root growth of seedlings in relation to control on 9th day after sowing (Hordeum vulgare; 0.001 μM): 119%; Percent (%) shoot growth of seedlings in relation to control on 9th day after sowing (Hordeum vulgare; 0.001 μM): 108%; Percent (%) germination of seeds in relation to control on 9th day after sowing (Hordeum vulgare; 0.01 μM): 100%; Percent (%) root growth of seedlings in relation to control on 9th day after sowing (Hordeum vulgare; 0.01 μM): 113%; Percent (%) shoot growth of seedlings in relation to control on 9th day after sowing (Hordeum vulgare; 0.01 μM): 106%; Percent (%) root growth of seedlings in relation to control on 9th day after sowing (Hordeum vulgare; 0.01 μM, listed as Calliterpenone diacetate): 119%; Percent (%) germination of seeds in relation to control on 9th day after sowing (Hordeum vulgare; 0.1 μM): 100%; Percent (%) root growth of seedlings in relation to control on 9th day after sowing (Hordeum vulgare; 0.1 μM): 98%; Percent (%) shoot growth of seedlings in relation to control on 9th day after sowing (Hordeum vulgare; 0.1 μM): 105% |
| CC1(C)C(O)CCC2(C)C3CCC4CC3(CCC12)CC4(O)CO (stereo not drawn) [Trihydroxy Phyllocladane, 30β, 16α, 17. trihydroxy phyllocladane] | 100 | 90 | 108 | 100 | 113 | 112 | 100 | 111 | 116 | 100 | 100 | 136 | 150 | 102 | 145 | 150 | 93 | 132 | 63 | 55 | Effect on shoots (in words) ([1]; T. foenum-graecum, all dilutions tested): proved toxic; Percent (%) shoot growth of seedlings in relation to control on 9th day after sowing ([1]; 0.001 μM): 53%; Percent (%) germination of seeds in relation to control on 9th day after sowing ([1]; 0.01 μM): 75%; Percent (%) root growth of seedlings in relation to control on 9th day after sowing ([1]; 0.01 μM): 68%; Percent (%) shoot growth of seedlings in relation to control on 9th day after sowing ([1]; 0.01 μM): 72%; Percent (%) germination of seeds in relation to control on 9th day after sowing ([1]; 0.1 μM): 88%; Percent (%) root growth of seedlings in relation to control on 9th day after sowing ([1]; 0.1 μM): 82%; Percent (%) shoot growth of seedlings in relation to control on 9th day after sowing ([1]; 0.1 μM): 84%; Percent (%) germination of seeds in relation to control on 9th day after sowing (Hordeum vulgare; 0.001 μM): 100%; Percent (%) root growth of seedlings in relation to control on 9th day after sowing (Hordeum vulgare; 0.001 μM): 145%; Percent (%) shoot growth of seedlings in relation to control on 9th day after sowing (Hordeum vulgare; 0.001 μM): 102%; Percent (%) germination of seeds in relation to control on 9th day after sowing (Hordeum vulgare; 0.01 μM): 100%; Percent (%) root growth of seedlings in relation to control on 9th day after sowing (Hordeum vulgare; 0.01 μM): 112%; Percent (%) shoot growth of seedlings in relation to control on 9th day after sowing (Hordeum vulgare; 0.01 μM): 108%; Percent (%) germination of seeds in relation to control on 9th day after sowing (Hordeum vulgare; 0.1 μM): 100%; Percent (%) root growth of seedlings in relation to control on 9th day after sowing (Hordeum vulgare; 0.1 μM): 106%; Percent (%) shoot growth of seedlings in relation to control on 9th day after sowing (Hordeum vulgare; 0.1 μM): 109% |
